Assay results: article PMC4438233, “Antibacterial effects of Traditional Chinese Medicine monomers against Streptococcus pneumoniae via inhibiting pneumococcal histidine kinase (VicK)” (Frontiers in Microbiology, 2015)
Read-outs that look alike come from different tables or passages of the source. Marks after values point to notes of the source that are not given here.

Assays:
S. mitis = test: MIC against S. mitis; type: cell-based; details: Streptococcus mitis
Method: (§1) Minimum inhibitory concentration (MIC) assays for the antibacterial activities of the compounds were performed according to the standard […] method of the Clinical and Laboratory Standards Institute of America. MIC testing of drug-resistant S. pneumoniae, drug-resistant S. aureus, streptococci and antimicrobial combination was also performed using the same method. Briefly, the drugs were serially diluted 2-fold into eight wells with C+Y medium, yielding final concentrations ranging from […]. Then 10^6 CFU bacteria were added to each well. Inoculated medium containing 1% DMSO served as a bacterial growth control, whereas uninoculated medium served as a sterility control. The plates were incubated at 37°C for 12–16 h. […] The experiment was repeated three times.

full-length VicK protein = molecular target: T1, full-length VicK protein (Streptococcus pneumoniae, UniProt Q8DPL8); test: Inhibition assay for ATPase activity of VicK (Kinase-Glo Luminescent Kinase Assay); type: biochemical; details: 6 μg VicK, 5 μM ATP
T1 construct: 6 His; made in house
Method: The inhibitory activities of the Chinese medicine monomers for the ATPase activity of the full-length VicK protein were evaluated using the Kinase-Glo™Luminescent Kinase Assay (Promega, Madison, USA). Briefly, 6 μg VicK protein was pre-incubated with a series of dilution of compounds in the reaction buffer at 37°C for 30 min. 5 μM ATP was added and incubated for another 30 min. Kinase-Glo™Reagent was also added to detect the remaining ATP recorded from luminescence measurements (RLU). In parallel, the VicK protein with no addition of compounds was used as a control, and the mixture with compounds excluding the VicK protein served as another control. The rate of protein phosphorylation (Rp) inhibition by the compounds was calculated from Equation (1).
(1) Rp=1−RLU(compound+ATP+Reagent) −RLU(compound+ATP+vick+Reagent)/RLU(ATP +Reagent)−RLU(ATP+vick+Reagent)×100%
The half maximal inhibitory concentration (IC50), which is the concentration of inhibition of 50% VicK protein autophosphorylation, was determined by GraphPad Prism 5 (Qin et al., [2006]).

[1] = test system: clinical S. pneumoniae 19A (CMCC31689); test: Mouse colonization model, serotype 19A; type: in vivo, BALB/c mice; details: for Mean log CFU at site of infection: 19A; for reduction of 19A bacterial numbers: at 24 h
Method: (§2) In colonization models, the mice were intranasally challenged by 20 μL of clinical drug-resistant strains (pneumococcal serotype 19F or 19A, 1.5 × 10^8 CFU). An hour later, the mice were intraperitoneally injected with 100 μL drugs (2 × MIC) alone or in combination with PEN (2 × MIC). These injections were continued thrice a day for 3 d. Nasal wash and lung tissues were obtained to analyze the bacteria load at 24, 48, and 72 h after drug infection. Then 100 μL aliquots of the samples diluted were plated on blood agar plates. The colonies were counted after incubation overnight at 37°C with 5% CO2.

S. pseudopneumoniae = test: MIC against S. pseudopneumoniae; type: cell-based; details: Streptococcus pseudopneumoniae
Method: as §1

[2] = test system: clinical S. pneumoniae 19F (CMCC31693); test: Mouse colonization model, serotype 19F; type: in vivo, BALB/c mice; details: for Mean log CFU at site of infection: 19F; for reduction in 19F bacterial numbers: at 24 h
Method: as §2

S. pyogenes = test: MIC against S. pyogenes; type: cell-based; details: Streptococcus pyogenes
Method: as §1

S. pneumoniae NCTC7466 = test: Mouse sepsis model, survival time; type: in vivo, BALB/c mice; details: i.p. infection 1 × 10^3 CFU; drug i.p. thrice a day for 3 d; untreated control 28.8 ± 1.25
Method: Female BALB/c mice (12–15 per group) aged 4–6 weeks were used to evaluate the antimicrobial effects of the compounds in vivo. In sepsis models, the mice were intraperitoneally infected with 100 μL S. pneumoniae NCTC7466 strain suspension (1 × 10^3 CFU). […] Two control groups were injected with 100 μL 1% DMSO (dissolved the drugs, negative control) or PEN (0.42 mg/kg/d, positive control) following the same injection route. The result was expressed as cumulative survival times following 7 d of observation.

pneumococcal strains = test: MIC against clinical pneumococcal strains (penicillin susceptible, intermediate, resistant); type: cell-based, Streptococcus pneumoniae; details: for MIC50 / MIC90: Streptococcus pneumoniae
Method: as §1

S. aureus = test: Checkerboard test with penicillin against S. aureus; type: cell-based, Staphylococcus aureus; details: for MIC: Staphylococcus aureus; for reduction of MIC in combination with PEN: four strains of MRSA
Method: as §1
The antimicrobial effects of different combinations of two antimicrobial agents were assayed using the checkerboard test (Bajaksouzian et al., [1997]). Each experiment was repeated thrice. The in vitro interaction between the five drugs with PEN was quantified by the fractional inhibitory concentration (FIC). The FIC index (FICI) was calculated using the following formula:
(2) FIC=FICA+FICB=[A]/MICA+[B]/MICB
where [A] and [B] are the concentrations of drugs A and B, respectively; MICA and FICA are the MIC and FIC of drug A for the organism, respectively; and MICB, and FICB are the MIC and FIC of drug B for the organism, respectively. The FIC index obtained was interpreted as follows: =0.5, synergy; FIC > 2.0, antagonism (Gupta and Kohli, [2003]).

[3] = test system: S. pneumoniae NCTC7466 biofilm; test: Biofilm-killing assay (crystal violet); type: cell-based, Streptococcus pneumoniae; details: crystal violet staining; 15.6–2000 μM; MIC or sub-MIC levels
Method: Biofilm formation was detected using a semiquantitative plate assay (Moscoso et al., [2006]). 10^6 CFU of D39 was incubated in C+Y medium for 6 h in a 96-well plate at 37°C. Then removed the planktonic cells, fresh C+Y medium containing the serially diluted drugs was added to each well and incubated for another 12 h at 37°C. The wells were washed gently three times with phosphate-buffered saline (PBS) and then stained with 1% (w/v) crystal violet. 200 μL methanol was added to dissolve the precipitate and determine the absorbance of the wells at 590 nm using a spectrophotometer (DTX880, Beckman Coulter, USA). The values of biofilm formation were normalized for absorbance, and the percentages were calculated in relation to control. The experiment was repeated twice.

[4] = NW (nasal wash), 24 h, i.p. three times a day for 3 days, control 7.29
[5] = NW (nasal wash), 24 h, i.p. three times a day for 3 days, control 6.72
[6] = Penicillin intermediate (n = 12)

T1 sequence (Q8DPL8 whole entry): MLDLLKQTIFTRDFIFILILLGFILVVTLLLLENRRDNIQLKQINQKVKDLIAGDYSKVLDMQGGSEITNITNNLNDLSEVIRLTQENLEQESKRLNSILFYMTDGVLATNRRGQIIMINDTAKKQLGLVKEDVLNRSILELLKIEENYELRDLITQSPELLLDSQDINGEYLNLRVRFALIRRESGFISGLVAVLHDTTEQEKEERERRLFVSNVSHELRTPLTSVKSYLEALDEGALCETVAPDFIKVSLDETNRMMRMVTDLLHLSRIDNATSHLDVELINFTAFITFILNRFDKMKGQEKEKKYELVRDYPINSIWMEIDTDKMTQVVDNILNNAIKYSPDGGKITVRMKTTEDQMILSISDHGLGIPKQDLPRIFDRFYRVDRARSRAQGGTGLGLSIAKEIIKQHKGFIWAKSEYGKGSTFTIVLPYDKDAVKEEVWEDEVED

Row | Structure (SMILES) | Mean log CFU at site of infection ([1]; Lung, 24 h, control 4.85) | Mean log CFU at site of infection ([1]; Lung, 48 h, control 6.12) | Mean log CFU at site of infection ([1]; Lung, 72 h, control 6.29) | Mean log CFU at site of infection [1, 4] | Mean log CFU at site of infection ([1]; NW, 48 h, control 5.97) | Mean log CFU at site of infection ([1]; NW, 72 h, control 6.01) | reduction of 19A bacterial numbers [1] | Mean log CFU at site of infection ([2]; Lung, 24 h, control 2.82) | Mean log CFU at site of infection ([2]; Lung, 48 h, control 7.57) | Mean log CFU at site of infection ([2]; Lung, 72 h, control 4.95) | Mean log CFU at site of infection [2, 5] | Mean log CFU at site of infection ([2]; NW, 48 h, control 6.27) | Mean log CFU at site of infection ([2]; NW, 72 h, control 7.09) | reduction in 19F bacterial numbers [2] | Mean survival of mice ± SEM (S. pneumoniae NCTC7466) | MIC of pneumococcal strains, Range (pneumococcal strains; [6]) | MIC of pneumococcal strains, MIC50 (pneumococcal strains; Penicillin resistant (n = 15)) | MIC of pneumococcal strains, Range (pneumococcal strains; Penicillin resistant (n = 15)) | MIC of pneumococcal strains, Range (pneumococcal strains; Penicillin susceptible (n = 7)) | reduction of MIC in combination with PEN (S. aureus) | further results
1 | CC(C)=CCCC1=CC(=O)c2c(O)ccc(O)c2C1=O [Compound 3, Deoxyshikonin] | 1 log CFU | 2.39 (0.0001)^b log CFU | 1.05 (0.04)^b log CFU | 6.08 (0.026)^b log CFU | 2.76 (0.005)^b log CFU | 3 (0.011)^b log CFU | two-log reduction | 1 (<0.0001)^b log CFU | 1 (0.001)^b log CFU | 2.5 (<0.0001)^b log CFU | 3.30 log CFU | 4.6 (0.0002)^b log CFU | 5.52 (<0.0001)^b log CFU | one-log reduction | 50.6 ± 4.1 h | 34 to 196 µg/mL | 17 µg/mL | 8.5 to 136 µg/mL | 17 to 34 µg/mL | 2 fold | MIC (S. mitis): 125 µg/mL; IC50 (full-length VicK protein; read-out: IC50 (inhibition of VicK ATPase activity / autophosphorylation) (converted)): 15.4 µM; IC50 (full-length VicK protein; value in parentheses, read-out: IC50 (inhibition of VicK ATPase activity / autophosphorylation) (converted)): 15.4 µM; MIC (S. pseudopneumoniae): 136 µg/mL; MIC (S. pyogenes): 8.5 µg/mL; MIC50 (pneumococcal strains; read-out: MIC of pneumococcal strains, MIC50, Penicillin intermediate (n = 12)): 68 µg/mL; MIC50 (pneumococcal strains; read-out: MIC of pneumococcal strains, MIC50, Penicillin resistant (n = 15)): 17 µg/mL; MIC50 (pneumococcal strains; read-out: MIC of pneumococcal strains, MIC50, Penicillin susceptible (n = 7)): 17 µg/mL; MIC90 (pneumococcal strains; read-out: MIC of pneumococcal strains, MIC90, Penicillin intermediate (n = 12)): 196 µg/mL; MIC90 (pneumococcal strains; read-out: MIC of pneumococcal strains, MIC90, Penicillin resistant (n = 15)): 68 µg/mL; MIC90 (pneumococcal strains; read-out: MIC of pneumococcal strains, MIC90, Penicillin susceptible (n = 7)): 34 µg/mL; MIC, Alone (S. aureus; MRSA8548991, agent alone): 34 µg/mL; MIC (S. aureus; ATCC29213, read-out: MIC, Alone): 34 µg/mL; MIC (S. aureus; MRSA, read-out: MIC, Alone): 68 µg/mL; MIC (S. aureus; read-out: MIC, Alone): 34 µg/mL; inhibition of biofilm formation [3]: inhibit biofilm formation at sub-MIC
2 | CCCCCCCCCCCCOC(=O)c1cc(O)c(O)c(O)c1 [Compound 5, Dodecyl gallate] | 1 log CFU | 3 log CFU | 2.82 log CFU | 5.91 (0.021)^b log CFU | 5.28 log CFU | 3.62 (0.033)^b log CFU | two-log reduction | 3.9 (0.0001)^b log CFU | 3 (0.006)^b log CFU | 2.8 (<0.0001)^b log CFU | 2.16 log CFU | 5.55 log CFU | 5.82 (<0.0001)^b log CFU | one-log reduction | 60.2 ± 7.3 h | 42 to 168 µg/mL | 42 µg/mL | 10.5 to 168.8 µg/mL | 21 to 168 µg/mL | 2 fold | MIC (S. mitis; S. mitis clinical isolate, 10^6 CFU/ml, read-out: MIC): 338 µg/mL; IC50 (full-length VicK protein; IC50 (inhibition of VicK ATPase activity / autophosphorylation)): 9.1 µM; IC50 (full-length VicK protein; IC50 (inhibition of VicK ATPase activity / autophosphorylation), value in parentheses): 9.07 µM; MIC (S. pseudopneumoniae; S. pseudopneumoniae clinical isolate, 10^6 CFU/ml, read-out: MIC): 42 µg/mL; MIC (S. pyogenes; S. pyogenes clinical isolate, 10^6 CFU/ml, read-out: MIC): 42 µg/mL; MIC50 (pneumococcal strains; Penicillin intermediate (n = 12), read-out: MIC of pneumococcal strains, MIC50): 84 µg/mL; MIC90 (pneumococcal strains; Penicillin intermediate (n = 12), read-out: MIC of pneumococcal strains, MIC90): 168 µg/mL; MIC50 (pneumococcal strains; Penicillin resistant (n = 15), read-out: MIC of pneumococcal strains, MIC50): 42 µg/mL; MIC90 (pneumococcal strains; Penicillin resistant (n = 15), read-out: MIC of pneumococcal strains, MIC90): 169 µg/mL; MIC50 (pneumococcal strains; Penicillin susceptible (n = 7), read-out: MIC of pneumococcal strains, MIC50): 42 µg/mL; MIC90 (pneumococcal strains; Penicillin susceptible (n = 7), read-out: MIC of pneumococcal strains, MIC90): 42 µg/mL; MIC (S. aureus; ATCC29213, S. aureus ATCC29213, agent alone, read-out: MIC, Alone): 168 µg/mL; MIC (S. aureus; MRSA8506305, agent alone, read-out: MIC, Alone): 337 µg/mL; MIC (S. aureus; MRSA8548991, agent alone, read-out: MIC, Alone): 84.4 µg/mL; MIC (S. aureus; MRSA, MRSA 8569082, agent alone, read-out: MIC, Alone): 84.4 µg/mL; inhibition of biofilm formation [3]: inhibit biofilm formation at sub-MIC
